Test results published in PubChem BioAssay (NCI).
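Grown in 96-well plates, cells were treated for 48 hours with each compound at five concentrations. Insufficient inhibition: endpoint recorded as highest concentration tested. TGI denotes the concentration required for complete inhibition of growth.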

Tests used:
Assay in all cases: NCI tumour cell line growth inhibition, 48 h
[1] = test system: 786-0 renal
[2] = test system: A549 NSCLC
[3] = test system: ACHN renal
[4] = test system: CAKI-1 renal
[5] = test system: COLO 205 colon
[6] = test system: DLD-1 colon
[7] = test system: DMS 114 small cell lung
[8] = test system: DMS 273 small cell lung
[9] = test system: EKVX NSCLC
[10] = test system: HCC-2998 colon
[11] = test system: HCT-116 colon
[12] = test system: HCT-15 colon
[13] = test system: HOP-18 NSCLC
[14] = test system: HOP-62 NSCLC
[15] = test system: HOP-92 NSCLC
[16] = test system: HT29 colon
[17] = test system: IGROV1 ovarian
[18] = test system: K-562 leukemia
[19] = test system: KM12 colon
[20] = test system: KM20L2 colon
[21] = test system: LOX IMVI melanoma
[22] = test system: LXFL 529 NSCLC
[23] = test system: M14 melanoma
[24] = test system: M19-MEL melanoma
[25] = test system: MALME-3M melanoma
[26] = test system: MOLT-4 leukemia
[27] = test system: NCI-H226 lung
[28] = test system: NCI-H23 lung
[29] = test system: NCI-H460 lung
[30] = test system: NCI-H522 lung
[31] = test system: OVCAR-3 ovarian
[32] = test system: OVCAR-4 ovarian
[33] = test system: OVCAR-5 ovarian
[34] = test system: OVCAR-8 ovarian
[35] = test system: RPMI-8226 leukemia
[36] = test system: RXF 393 renal
[37] = test system: SF-268 CNS
[38] = test system: SF-295 CNS
[39] = test system: SF-539 CNS
[40] = test system: SK-MEL-2 melanoma
[41] = test system: SK-MEL-28 melanoma
[42] = test system: SK-MEL-5 melanoma
[43] = test system: SK-OV-3 ovarian
[44] = test system: SN12C renal
[45] = test system: SNB-19 CNS
[46] = test system: SNB-75 CNS
[47] = test system: SNB-78 CNS
[48] = test system: SW-620 colon
[49] = test system: TK-10 renal
[50] = test system: U251 CNS
[51] = test system: UACC-257 melanoma
[52] = test system: UACC-62 melanoma
[53] = test system: UO-31 renal
[54] = test system: A498 renal
[55] = test system: CCRF-CEM leukemia
[56] = test system: HL-60(TB) leukemia
[57] = test system: XF 498 CNS
[58] = test system: SR leukemia

COc1ccc2nc(NC(=O)C(=O)C(C#N)c3ccc([N+](=O)[O-])cc3)sc2c1 (stereo not given)
TGI [1]: > 100 µM
TGI [2]: > 100 µM
TGI [3]: > 100 µM
TGI [4]: > 100 µM
TGI [5]: > 100 µM
TGI [6]: > 100 µM
TGI [7]: > 100 µM
TGI [8]: > 100 µM
TGI [9]: > 100 µM
TGI [10]: > 100 µM
TGI [11]: > 100 µM
TGI [12]: > 100 µM
TGI [13]: > 100 µM
TGI [14]: > 100 µM
TGI [15]: > 100 µM
TGI [16]: > 100 µM
TGI [17]: > 100 µM
TGI [18]: > 100 µM
TGI [19]: > 100 µM
TGI [20]: > 100 µM
TGI [21]: > 100 µM
TGI [22]: > 100 µM
TGI [23]: > 100 µM
TGI [24]: > 100 µM
TGI [25]: > 100 µM
TGI [26]: > 100 µM
TGI [27]: > 100 µM
TGI [28]: > 100 µM
TGI [29]: > 100 µM
TGI [30]: > 100 µM
TGI [31]: > 100 µM
TGI [32]: > 100 µM
TGI [33]: > 100 µM
TGI [34]: > 100 µM
TGI [35]: > 100 µM
TGI [36]: > 100 µM
TGI [37]: > 100 µM
TGI [38]: > 100 µM
TGI [39]: > 100 µM
TGI [40]: > 100 µM
TGI [41]: > 100 µM
TGI [42]: > 100 µM
TGI [43]: > 100 µM
TGI [44]: > 100 µM
TGI [45]: > 100 µM
TGI [46]: > 100 µM
TGI [47]: > 100 µM
TGI [48]: > 100 µM
TGI [49]: > 100 µM
TGI [50]: > 100 µM
TGI [51]: > 100 µM
TGI [52]: > 100 µM
TGI [53]: > 100 µM

NC(=O)NCc1c(C(N)=O)ncn1Cc1ccccc1
TGI [1]: > 100 µM
TGI [54]: > 100 µM
TGI [2]: > 100 µM
TGI [3]: > 100 µM
TGI [4]: > 100 µM
TGI [55]: > 100 µM
TGI [5]: > 100 µM
TGI [6]: > 100 µM
TGI [7]: > 100 µM
TGI [8]: > 100 µM
TGI [9]: > 100 µM
TGI [10]: > 100 µM
TGI [11]: > 100 µM
TGI [12]: > 100 µM
TGI [56]: > 100 µM
TGI [13]: > 100 µM
TGI [14]: > 100 µM
TGI [15]: > 100 µM
TGI [16]: > 100 µM
TGI [17]: > 100 µM
TGI [18]: > 100 µM
TGI [20]: > 100 µM
TGI [21]: > 100 µM
TGI [22]: > 100 µM
TGI [23]: > 100 µM
TGI [24]: > 100 µM
TGI [26]: > 100 µM
TGI [28]: > 100 µM
TGI [29]: > 100 µM
TGI [31]: > 100 µM
TGI [32]: > 100 µM
TGI [34]: > 100 µM
TGI [35]: > 100 µM
TGI [36]: > 100 µM
TGI [38]: > 100 µM
TGI [39]: > 100 µM
TGI [41]: > 100 µM
TGI [42]: > 100 µM
TGI [43]: > 100 µM
TGI [44]: > 100 µM
TGI [45]: > 100 µM
TGI [46]: > 100 µM
TGI [47]: > 100 µM
TGI [48]: > 100 µM
TGI [49]: > 100 µM
TGI [50]: > 100 µM
TGI [51]: > 100 µM
TGI [52]: > 100 µM
TGI [57]: > 100 µM

C=CCc1ccc(Oc2cc(CC=C)c3c(c2O)O[C@@H](CO)[C@H]3c2ccc(O)c(-c3cc(CC=C)ccc3O)c2)cc1
TGI [1]: > 100 µM
TGI [54]: > 100 µM
TGI [2]: > 100 µM
TGI [3]: > 100 µM
TGI [4]: > 100 µM
TGI [55]: 46.6 µM
TGI [5]: > 100 µM
TGI [6]: > 100 µM
TGI [7]: 54.6 µM
TGI [8]: > 100 µM
TGI [9]: > 100 µM
TGI [10]: > 100 µM
TGI [11]: > 100 µM
TGI [12]: > 100 µM
TGI [56]: 55.3 µM
TGI [13]: > 100 µM
TGI [14]: > 100 µM
TGI [15]: > 100 µM
TGI [16]: 49.1 µM
TGI [17]: 72.8 µM
TGI [18]: > 100 µM
TGI [19]: > 100 µM
TGI [20]: 93.5 µM
TGI [21]: 30.9 µM
TGI [22]: 90.7 µM
TGI [23]: > 100 µM
TGI [24]: > 100 µM
TGI [25]: > 100 µM
TGI [27]: > 100 µM
TGI [28]: > 100 µM
TGI [29]: > 100 µM
TGI [30]: 32.6 µM
TGI [31]: > 100 µM
TGI [32]: > 100 µM
TGI [33]: > 100 µM
TGI [34]: > 100 µM
TGI [35]: > 100 µM
TGI [36]: > 100 µM
TGI [37]: > 100 µM
TGI [38]: > 100 µM
TGI [39]: > 100 µM
TGI [40]: 65.7 µM
TGI [41]: > 100 µM
TGI [42]: > 100 µM
TGI [43]: > 100 µM
TGI [44]: > 100 µM
TGI [45]: > 100 µM
TGI [46]: > 100 µM
TGI [47]: > 100 µM
TGI [58]: 46.9 µM
TGI [48]: > 100 µM
TGI [49]: > 100 µM
TGI [50]: 51.8 µM
TGI [51]: > 100 µM
TGI [52]: 85 µM
TGI [53]: > 100 µM

CC(=O)O[C@]12CCCCCC1C1(O)C(O)CCCC[C@H]12 (stereo not given in full)
TGI [1]: > 100 µM
TGI [2]: > 100 µM
TGI [3]: > 100 µM
TGI [55]: > 100 µM
TGI [5]: > 100 µM
TGI [7]: > 100 µM
TGI [8]: > 100 µM
TGI [9]: > 100 µM
TGI [12]: > 100 µM
TGI [56]: > 100 µM
TGI [14]: > 100 µM
TGI [16]: > 100 µM
TGI [18]: > 100 µM
TGI [19]: > 100 µM
TGI [20]: > 100 µM
TGI [21]: > 100 µM
TGI [22]: > 100 µM
TGI [23]: > 100 µM
TGI [24]: > 100 µM
TGI [25]: > 100 µM
TGI [26]: > 100 µM
TGI [27]: > 100 µM
TGI [28]: > 100 µM
TGI [29]: > 100 µM
TGI [30]: > 100 µM
TGI [32]: > 100 µM
TGI [34]: > 100 µM
TGI [35]: > 100 µM
TGI [36]: > 100 µM
TGI [37]: > 100 µM
TGI [38]: > 100 µM
TGI [40]: > 100 µM
TGI [41]: > 100 µM
TGI [42]: > 100 µM
TGI [43]: > 100 µM
TGI [44]: > 100 µM
TGI [45]: > 100 µM
TGI [46]: > 100 µM
TGI [47]: > 100 µM
TGI [58]: > 100 µM
TGI [48]: > 100 µM
TGI [49]: > 100 µM
TGI [50]: > 100 µM
TGI [51]: > 100 µM
TGI [52]: > 100 µM
TGI [53]: > 100 µM
TGI [57]: > 100 µM
